The results in this text go back to patent publication US10774083B2, “Heterocyclic amide compound” (TAKEDA PHARMACEUTICAL COMPANY LIMITED, priority 2016, dated 2020).

Molecules are shown by their SMILES.

The target of one test is T1, human PRS protein (His-Avi-hEPRS (998-1512)) (Homo sapiens, UniProt P07814).
T1 construct: to construct His-Avi-hEPRS (998-1512) expression plasmid; His tag (N); Avi tag (N); TEV cleavage site (ENLYFQG, then S; inferred from the forward primer hEPRS-TEV-NheF) (N); made in house; host or cells: E. coli BL21(DE3)
T1 sequence (P07814 998-1512 limits assumed): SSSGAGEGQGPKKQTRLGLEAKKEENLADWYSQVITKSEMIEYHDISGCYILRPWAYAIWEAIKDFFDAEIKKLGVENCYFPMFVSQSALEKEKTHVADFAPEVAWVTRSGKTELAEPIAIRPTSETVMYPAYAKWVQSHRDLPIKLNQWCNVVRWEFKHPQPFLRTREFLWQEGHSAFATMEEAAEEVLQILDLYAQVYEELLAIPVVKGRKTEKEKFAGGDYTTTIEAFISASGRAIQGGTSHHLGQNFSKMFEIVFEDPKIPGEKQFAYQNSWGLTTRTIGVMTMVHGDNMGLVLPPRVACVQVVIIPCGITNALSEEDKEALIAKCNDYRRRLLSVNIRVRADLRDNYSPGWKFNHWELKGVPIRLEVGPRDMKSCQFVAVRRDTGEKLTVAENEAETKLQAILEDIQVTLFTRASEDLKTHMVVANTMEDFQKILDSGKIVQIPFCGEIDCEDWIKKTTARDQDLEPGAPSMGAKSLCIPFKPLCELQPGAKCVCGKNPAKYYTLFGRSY
Description: PRS inhibitory activity ([32P]pyrophosphate exchange enzyme assay). The conditions noted are these: 300 nM test compound; 0.3 µM. The format is biochemical. How it is done:
The PRS inhibitory activity of the compounds of the present invention was evaluated by the following method.
An expression plasmid of Catalytic Domain of human EPRS was obtained by PCR using human skeletal muscle cDNA Library (Takara Bio Inc.) as a template and 2 kinds of Primers 5′-[…]-3′ (hEPRS-TEV-NheF) (SEQ ID NO: 1) and 5′-[…]-3′ (hEPRS-St-Not-R) (SEQ ID NO: 2). PCR was performed using PrimeStar GXL DNA Polymerase (Takara Bio Inc.) and included (1) 98° C., 1 min, (2) 35 cycles of 98° C., 10 sec, 65° C., 10 sec, 72° C., 1 min, and (3) reaction at 72° C., 1 min. This was cleaved with Nhe I and Not I (Takara Bio Inc.) and inserted using Ligation High (TOYOBO CO., LTD.) into the Nhe I/Not I site of pET21a (Novagen) with His-Avitag inserted thereinto. This was introduced into ECOS JM109 (NIPPON GENE CO., LTD.) to construct His-Avi-hEPRS (998-1512) expression plasmid.
Recombinant human PRS protein was prepared by transforming the His-Avi-hEPRS (998-1512) expression plasmid prepared above into ECOS Competent E. coli BL21(DE3) (NIPPON GENE CO., LTD.). Escherichia coli obtained by transformation was inoculated into 300 mL of LB medium (1% peptone, 0.5% yeast extract, 0.5% sodium chloride, 0.01% ampicillin) and cultured at 30° C. for 16 hr. The obtained culture medium was transferred into a jar culture tank charged with 6 L of the main fermentation medium (0.3% potassium dihydrogen phosphate, 0.6% disodium hydrogen phosphate, 0.1% ammonium chloride, 0.05% sodium chloride, 0.024% magnesium sulfate, 0.02% NEWPOL LB-625, 1.5% sorbitol, 1.5% casamino acid, 0.5% yeast extract, 0.01% ampicillin) and culturing was started at 37° C., quantity of airflow 5 L/min, stirring rotating speed 400 rpm. At the time point when the turbidity of the culture medium reached about 550 Klett units, the culture temperature was lowered to 16° C., isopropyl-β-D-thiogalactopyranoside (IPTG) was added to the final concentration 0.1 mM, and culturing was performed for another 16 hr to induce expression of human PRS. After completion of culturing, the culture medium was centrifuged at 5,000 rpm for 10 min. The obtained human PRS expressing Escherichia coli was suspended in a buffer containing 50 mM Tris-HCl (pH 8.0), 150 mM NaCl, 1 mM DTT, 5 U/ml Benzonase, 20 mM Imidazole and sonicated using Sonifier (BRANSON). The homogenate was centrifuged (33,000×G, 60 min, Beckman Coulter), the obtained supernatant was subjected to adsorption by passage through Ni-NTA Superflow (QIAGEN) column equilibrated in advance with 50 mM Tris-HCl (pH 8.0), 300 mM NaCl, 1 mM DTT, and elution was performed with a buffer containing 50 mM Tris-HCl (pH 8.0), 300 mM NaCl, 1 mM DTT, 250 mM Imidazole. Furthermore, gel filtration was performed using Superdex200 pg column equilibrated in advance with a buffer containing 50 mM Tris-HCl (pH 8.0), 150 mM NaCl, 1 mM DTT, 10% glycerol to give purified human PRS protein. The protein concentration was measured using BCA Protein Assay Kit (PIERCE) and BSA as the standard.
A test compound was dissolved in 5 μL of an assay buffer (50 mM Tris-HCl (pH 7.5), 20 mM KCl, 1 mM DTT, 0.01% Tween 20) and incubated for 60 min with 5 μL of 40 nM human PRS protein dissolved in the assay buffer containing 40 mM MgCl2. An enzyme reaction of the human PRS protein was started by adding 10 μL of a substrate solution containing 300 μM ATP, 160 μM L-Proline, 400 μM pyrophosphate, [^32P]pyrophosphate (PerkinElmer) prepared to 1 MBq/mL. After incubation at room temperature for 30 min, the reaction was discontinued by adding 50 μL of discontinuation/washing solution (1M HCl, 200 mM sodium pyrophosphate) to the reaction mixture. The reaction solution was transferred to a filter plate (Merck Millipore, Billerica, Mass.) previously added with 200 μL of charcoal solution (0.5% HCl solution containing 10% charcoal (w/v)). […]
Turning to `Cn1cc(-c2cc(F)cc(CNC(=O)c3ncnc4nc(C5COCCO5)[nH]c34)c2)cn1` (stereo not drawn) [Example 34, 8-(1,4-dioxan-2-yl)-N-(3-fluoro-5-(1-methyl-1H-pyrazol-4-yl)benzyl)-7H-purine-6-carboxamide], the “inhibitory rate (%) of PRS” value is on record as 101%.

Staying with this test, now noted: 300 nM test compound; read-out: inhibitory rate (%) of PRS.
For the compound `Cn1cc(-c2cc(F)cc(CNC(=O)c3ncnc4nc(C5CCS(=O)(=O)C5)[nH]c34)c2)cn1` (stereo not drawn) [Example 28, 8-(1,1-dioxidotetrahydrothiophen-3-yl)-N-(3-fluoro-5-(1-methyl-1H-pyrazol-4-yl)benzyl)-7H-purine-6-carboxamide], the inhibition at 0.3 µM came out at 101%.

`Cn1cc(-c2ccnc(CNC(=O)c3nccc4nc(C5CCCC5)n(C)c34)n2)cn1` [Example 146, 2-cyclopentyl-3-methyl-N-((4-(1-methyl-1H-pyrazol-4-yl)pyrimidin-2-yl)methyl)-3H-imidazo[4,5-c]pyridine-4-carboxamide]: the inhibition at 0.3 µM was 78%.

For `Cc1nc(C(=O)NCc2cc(F)cc(-c3cnn(C)c3)c2)cc(N2CC[C@@](C#N)(C3CC3)C2=O)n1` [Example 237, 6-((3S)-3-cyano-3-cyclopropyl-2-oxopyrrolidin-1-yl)-N-(3-fluoro-5-(1-methyl-1H-pyrazol-4-yl)benzyl)-2-methylpyrimidine-4-carboxamide], the inhibition at 0.3 µM came to 74%.

Regarding `O=C(NCc1cccc(-c2ccccc2)c1)c1nccc2nc(C3CCCC3)[nH]c12` [Example 83, N-(biphenyl-3-ylmethyl)-2-cyclopentyl-3H-imidazo[4,5-c]pyridine-4-carboxamide], the inhibition at 0.3 µM stood at 98%.

`Cn1cc(-c2cc(F)cc(CNC(=O)c3cc(N4CC[C@@](C#N)(C5CC5)C4=O)cc(C4CC4)n3)c2)cn1` [Example 225, 4-((3S)-3-cyano-3-cyclopropyl-2-oxopyrrolidin-1-yl)-6-cyclopropyl-N-(3-fluoro-5-(1-methyl-1H-pyrazol-4-yl)benzyl)pyridine-2-carboxamide]: the inhibition at 0.3 µM came out at 66%.

As for `Cc1cc(N2CC[C@@](C#N)(C3CC3)C2=O)cc(C(=O)NCc2cc(-c3cnn(C)c3)cc(C(F)(F)F)c2)n1` [Example 218, 4-((3S)-3-cyano-3-cyclopropyl-2-oxopyrrolidin-1-yl)-6-methyl-N-(3-(1-methyl-1H-pyrazol-4-yl)-5-(trifluoromethyl)benzyl)pyridine-2-carboxamide], the inhibition at 0.3 µM is 83%.

Turning to `Cn1c(C2CCCC2)nc2ccnc(C(=O)NCc3ccccc3Cl)c21` [Example 85, N-(2-chlorobenzyl)-2-cyclopentyl-3-methyl-3H-imidazo[4,5-c]pyridine-4-carboxamide], the inhibition at 0.3 µM came to 97%.

As to `Cn1cc(-c2cc(F)cc(CNC(=O)c3nccc4nc(C5CCCC5)n(CC5CC5)c34)c2)cn1` [Example 114, 2-cyclopentyl-3-(cyclopropylmethyl)-N-(3-fluoro-5-(1-methyl-1H-pyrazol-4-yl)benzyl)-3H-imidazo[4,5-c]pyridine-4-carboxamide], the inhibition at 0.3 µM was 101%.

Take `Cc1cc(N2CCC(C3CC3)C2=O)cc(C(=O)NCc2cc(F)cc(-c3cnn(C)c3)c2)n1` (stereo not drawn) [Example 234, 4-(3-cyclopropyl-2-oxopyrrolidin-1-yl)-N-(3-fluoro-5-(1-methyl-1H-pyrazol-4-yl)benzyl)-6-methylpyridine-2-carboxamide]: the inhibition at 0.3 µM turned out to be 87%.

Take `COc1c(F)cc(-c2cnn(C)c2)cc1CNC(=O)c1ncnc2nc(C3CCCC3)n(C)c12` [Example 6, 8-cyclopentyl-N-(3-fluoro-2-methoxy-5-(1-methyl-1H-pyrazol-4-yl)benzyl)-7-methyl-7H-purine-6-carboxamide]: the inhibition at 0.3 µM is 79%.

In the case of `Cc1cc(N2OCC(C)(C)C2=O)cc(C(=O)NCc2cc(F)cc(-c3cnn(C)c3)c2)n1` [Example 179, 4-(4,4-dimethyl-3-oxo-1,2-oxazolidin-2-yl)-N-(3-fluoro-5-(1-methyl-1H-pyrazol-4-yl)benzyl)-6-methylpyridine-2-carboxamide], the inhibition at 0.3 µM was 93%.
